Experimental data taken from patent US20190017017A1, “USE OF VASCULAR CELLS TO CREATE THE CONVENTIONAL OUTFLOW TRACT” (THE RESEARCH FOUNDATION FOR THE STATE UNIVERSITY OF NEW YORK, priority 2016, published 2019).

Legend:
HTM cells = test: Outflow facility of porous scaffolds bearing cultured HTM cells (perfusion); assay type: cell-based, human; conditions: FIG. 15
From the text: TM cells and SC cell-like cells co-cultured on a porous scaffold in accordance with aspects of the present disclosure may serve as a system to model conventional outflow tract function, physiology, and pathophysiology. FIG. 13A is a diagrammatic representation of a testing apparatus for performing perfusion-related testing in accordance with aspects of the present disclosure. A syringe pump or other pressure source may feed into a holder for a porous scaffold, with TM and SC cell-like cells co-cultured thereupon, with pressure controlled and measured by a pressure transducer. The pressure across the porous scaffold and cells, and other aspects related to pressure such as through-flow, flow rate, resistance to flow, hydraulic conductivity, and other indicia of conventional outflow tract function may be measured. For example, fluids can be perfused across the co-culture-bearing scaffold and aspects of fluid mechanics measured as an indication of conventional outflow tract function. […] Aspects of membrane pressure, outflow dynamics, and cellular function can similarly be measured under different conditions known or hypothesized to replicate disease states, or lack thereof, or conditions known or believed to prevent, ameliorate, or cure disease or pathological states. In an example, fluid may be perfused across a porous scaffold bearing co-cultured TM and SC cell-like cells and effects of transmembrane pressure, flow rate, through-flow, resistance to flow, hydraulic conductivity, vacuole dynamics, pore formation, or outflow facility of the co-cultured TM cells and SC cell-like cells may be measured. […] Other aspects of cellular physiology or function may similarly be measured, in response or relation to perfusion or otherwise. […]
A perfusion apparatus was used as described in publicly available literature and in accordance with the apparatus illustrated in FIG. 13. […] Vacuole/pore size were measured using the embedded LEO electron microscopy image software. […]

HTM/HMVEC constructs = test: qPCR and western blot of outflow pathway markers in co-cultured constructs exposed to pharmacologic agents; assay type: cell-based, human; conditions: qPCR and western blotting; FIGS. 14A-E
Protocol: Total RNA was extracted from samples using an RNeasy Plus Mini kit (Qiagen Inc., Valencia, Calif.). RNA concentrations were determined using a NanoDrop spectrophotometer. 50 ng of RNA per sample was used for each qPCR experiments. qPCR was carried out using TAQMAN RNA-TO-CT™ 1-Step Kit (Applied Biosystems, Carlsbad, Calif.) and performed on an AB StepOnePlus Real Time PCR system (Life Technologies, Carlsbad, Calif.) using primers for αB-crystallin, PECAM-1, fibulin-2, collagen type IV, fibronectin, laminin and GAPDH.
The temperature profile was as follows: 48° C. for 15 min (reverse transcription step), followed by an enzyme activation step of 95° C. for 10 min, 40 cycles of 15 s denaturation at 95° C. and 1 min anneal/extend at 60° C. Relative quantitation data analysis was performed using the comparative quantification method, ΔΔCt, with GAPDH as the endogenous reference. […]
FIGS. 14A-E show gene (left panels, qPCR) and protein (right, western blots) expression patterns of co-cultured HTM/HVEC constructs. HTM-HMVEC and HTM-HSC constructs were contacted with pharmacologic agents that regulate outflow and expression levels of various genes and proteins (α-SMA, collagen IV, fibronectin, myocillin) measured by qPCR and western blotting. […]

With C[C@@H](N)[C@H]1CC[C@H](C(=O)Nc2ccncc2)CC1 [Y27632] the “effect on outflow facility” value (HTM cells) was “stimulate” and the “response (expression of α-SMA, collagen IV, fibronectin, myocillin) of HTM-HMVEC constructs compared with HTM-HSC constructs” value (HTM/HMVEC constructs) was “responds similar”.

For CC(=O)OCC(=O)[C@@]1(O)CC[C@H]2[C@@H]3CCC4=CC(=O)C=C[C@]4(C)[C@H]3C(=O)C[C@@]21C [prednisone acetate], the “effect on outflow facility” value (HTM cells) was “inhibit”.

In the case of TGFβ, the “effect on outflow facility” value (HTM cells) is reported as “inhibit” and the “response (expression of α-SMA, collagen IV, fibronectin, myocillin) of HTM-HMVEC constructs compared with HTM-HSC constructs” value (HTM/HMVEC constructs) is reported as “responds similar”.
